Data set [1] concerns HNC-TIC-like oral stem cells (ALDH1^+CD44^+-1 cell line, ALDH1^+CD44^+-2 cell line). The data set is described as follows: MTT viability assay on HNC-TIC-like oral stem cells. Particulars: BP 0, 25, 50 and 100 µg/ml for 24 hours; both cell lines; Figure 2. Type of data set: cell-based. On the procedure:
NHOKs (normal human oral keratinocytes) and HNC-TIC (head and neck cancer-derived tumor initiating cell)-like oral stem cells (i.e., ALDH1^+CD44^+-1 cell line or ALDH1^+CD44^+-2 cell line) were treated with different concentrations (0, 25, 50 and 100 µg/ml) of BP for 24 hours, and then, an MTT assay was utilized to analyzed the viabilities of NHOKs and HNC-TIC-like oral stem cells (i.e., ALDH1^+CD44^+-1 cell line and ALDH1^+CD44^+-2 cell line).
A general note: Formazan colour is commonly taken as a measure of viable cells.

The next data set concerns ALDH. The data set is described as follows: ALDEFLUOR flow cytometry analysis of ALDH activity in HNC-TIC-like oral stem cells. The format is cell-based. Particulars: group without DEAB addition; BP 0, 25 and 50 µg/ml for 24 hours; Figure 8. On the procedure:
ALDH protein is also an important stemness-maintenance marker of cancer stem cells and participates in the regulation of the self-renewal and differentiation of cancer stem cells. HNC-TIC-like oral stem cells (i.e., ALDH1^+CD44^+-1 cell line or ALDH1^+CD44^+-2 cell line) were treated with different concentrations (0, 25 and 50 µg/ml) of BP for 24 hours, and then, 1 ×10^5 cells obtained from each group were separately suspended in 50 µl of a stem cell detection kit (i.e., ALDEFLUOR array kit, purchased from […] Technologies Inc., Vancouver, Canada) buffer and the cell suspension of each group was separately added with ALDEFLUOR to a final concentration of 1 µM. Thereafter, a sample of each group was stained by […] and then analyzed by flow cytometry analysis to determine the ALDH activity of HNC-TIC-like oral stem cells (i.e., ALDH1^+CD44^+-1 cell line and ALDH1^+CD44^+-2 cell line).
The above experimental procedure was repeated, but the cell suspension of each group was further added with N,N-diethylaminobenzaldehyde (DEAB, i.e., an inhibitor of ALDH) to a final concentration of 150 µM of DEAB separately.
(In general: A flow cytometer gives signals particle by particle.)

For data set [2], the system named is HNC-TIC-like oral stem cells stably transfected with GFP-tagged constructs. The data set is described as follows: Tumor initiating activity animal experiment, subcutaneous GFP-tagged HNC-TIC-like oral stem cells in nude mice. Type of data set: in vivo, BALB/c nu/nu mice. On the procedure:
In this research, the effect of BP on inhibiting the tumor initiating activity of cancer stem cells was further investigated by animal experiments. First, 5-6 weeks old BALB/c nu/nu mice (weight 18-22 g) were bred under the same condition for 4 weeks. Then, HNC-TIC-like oral stem cells stably transfected with GFP-tagged constructs were injected (1×10^4 cells/0.1 mL/mouse) subcutaneously into the axilla of mice. After tumors reached 100 mm^3, mice were grouped into one control group and two experimental groups (three groups in total, n=3 per group). Then, one experimental group was injected daily with 100 mg/kg of BP for 6 days and another experimental group was injected daily with 200 mg/kg of BP for 6 days. The control group was injected daily with a vehicle (without BP) for 6 days. Ten days after the injection of BP or vehicle, the length and width were measured every 2 days (22 days in total), and then, the average tumor volume was calculated according to the following Formula 1. At the same time, the GFP signal (i.e., green fluorescence) of each group was detected and photographed by the IVIS Imaging system. The GFP intensity of each group was analyzed by Image-Pro Plus software. [length×width^2]/2((unit:mm)^3) [formula]

Another data set relates to Sox-2 and Oct4 proteins. The data set is described as follows: Western blotting of stemness-maintenance markers in HNC-TIC-like oral stem cells. Particulars: BP 0, 12.5, 25 and 50 µg/ml for 24 hours; both cell lines; Figure 7. Type of data set: cell-based. For orientation: Immunoblotting shows a protein as a band on a membrane.
Another data set deals with brain CSCs ^CD133+. The data set is described as follows: Wound healing assay with brain CSCs CD133+. Particulars: BP 0-75 µg/ml or BCNU 0-400 µM for 24 hours; Figure 13. The format is cell-based. An excerpt:
In this research, a wound healing assay was used to further investigate the effect of BP on inhibiting the metastasis of cancer stem cells.

Data set [3] deals with pcDNA 3.0-Axl brain CSCs ^CD133+. The data set is described as follows: Wound healing assay with pcDNA 3.0-Axl brain CSCs CD133+ (Axl overexpression). Type of data set: cell-based. Particulars: BP 0, 25, 50, 62.5, 75 and 100 µg/ml for 24 hours, compared to pcDNA3.0-neo cells, Figure 14C. On the procedure: In this research, to further investigate whether the capability of BP in inhibiting the metastasis of cancer stem cells is related to Axl, brain CSCs ^CD133+ was transfected with pcDNA3.0-Axl plasmid and pcDNA3.0-neo plasmid respectively by using Lipofectmine 2000 transfection reagent. Then, the transfected brain CSCs ^CD133+ and un-transfected brain CSCs ^CD133+ were selected by 200 to 600 µg/ml G418 at the same time to obtain brain CSCs ^CD133+ having pcDNA3.0-Axl plasmid (hereinafter referred to as "pcDNA 3.0-Axl brain CSCs ^CD133+") or brain CSCs ^CD133+ having pcDNA3.0-neo plasmid (hereinafter referred to as "pcDNA3.0-neo brain CSCs ^CD133+"). Both pcDNA 3.0-Axl brain CSCs ^CD133+ and pcDNA3.0-neo brain CSCs ^CD133+ were observed and photographed with the use of a microscope. Then, proteins were extracted from both cells to conduct Western blotting to determine the expressions of Axl protein and β-actin in the BP-treated brain CSCs ^CD133+. Yet another, pcDNA 3.0-Axl brain CSCs ^CD133+ and pcDNA3.0-neo brain CSCs ^CD133+ were treated with different concentrations (0, 25, 50, 62.5, 75 and 100 µg/ml) of BP for 24 hours. At the same time, the phenomenon of pcDNA 3.0-Axl brain CSCs ^CD133+ and pcDNA3.0-neo brain CSCs ^CD133+ migrate to the wound was observed and photographed at 0 and 24 hours during the BP treatment.

The text below walks through data of patent EP3338775B1, “USE OF BUTYLIDENEPHTHALIDE” (Everfront Biotech Inc., priority 2015, dated 2017).

Structures are written as SMILES.

Turning to `CCCC=C1OC(=O)c2ccccc21` [BP, butylidenephthalide], the “viability of HNC-TIC-like oral stem cells” value in data set [1] is “decreased along with the increment in the concentration of BP”. Further, the “number of live cells with ALDH activity” value in the data set with ALDH is on record as “increased along with the increment in the concentration of BP”. Moreover, the GFP intensity result in data set [2] (100 mg/kg and 200 mg/kg groups, injected daily for 6 days, compared to control group, Figures 16C, 16D) is “significantly decreased”. In addition, the tumor volume result in data set [2] (100 mg/kg and 200 mg/kg groups, injected daily for 6 days, over a period of time after BP injection, Figure 16B) is listed as “decreased”. Further, the “body weight of mice” value in data set [2] (100 mg/kg or 200 mg/kg of BP injected daily for 6 days, Figure 16A) was “didn't change significantly”. Besides, in the data set with Sox-2 and Oct4 proteins, the “expressions of Sox-2 and Oct4 proteins in the HNC-TIC-like oral stem cells” value is “significantly decreased”. Also, the “number of brain CSCs ^CD133+ migrated to the wound” value with brain CSCs ^CD133+ is recorded as “significantly decreased”. Further, the “suppression of the number of pcDNA 3.0-Axl brain CSCs ^CD133+ migrated to the wound” value in data set [3] is listed as “not quite significant”.
